Experimental data: the supplement of paper PMC10307832

compound: CCOC(=O)CCNc1cc(N2CCc3ccccc3CC2)nc(-c2ccccn2)n1 [GSK-J4] + COc1cc2c(Oc3ccc(NC(=O)C4(C(=O)Nc5ccc(F)cc5)CC4)cc3F)ccnc2cc1OCCCN1CCOCC1 [Foretinib] (partner 0.25 µM); assay: relative viability (nuclei count vs DMSO), 5 days (fraction); higher = more cells survive; conditions: first compound 0.5 µM
Outline: (§1)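 Cells from lung cancer lines were seeded into 1536-well plates and, one day later, dosed by pin tool. Treatments were either a single drug or a fixed dose of an anchor drug with five library-drug doses (not always all listed) in √10 steps. After 5 days, nuclei were stained in a one-step fixation (final 0.05% Triton X-100, 1% formaldehyde, 1 ug/ml Hoechst) and counted on 4× images, and relative viability is the treated-to-vehicle nuclei ratio, as the median of duplicate plates.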

Cell Line | relative viability
NCI-H1623 | 0.93
PC-14 | 0.902
NCI-H1666 | 0.998
EKVX | 0.757
NCI-H1755 | 0.906
NCI-H2023 | 0.759
HCC-78 | 0.571
SK-LU-1 | 0.727
PC-3 [JPC-3] | 0.96
LOU-NH91 | 0.963
NCI-H647 | 1.1
NCI-H23 | 0.999
EPLC-272H | 0.723
NCI-H2126 | 1.06
ChaGo-K-1 | 0.995
NCI-H1734 | 0.821
NCI-H650 | 0.972
LK-2 | 1.26
NCI-H2228 | 0.764

Cell Line | relative viability
NCI-H2342 | 1.02
NCI-H1944 | 0.934
HARA | 0.863
Calu-6 | 0.83
COR-L23 | 0.927
EBC-1 | 0.0939
A549 | 0.84
SW 900 | 0.681
NCI-H1299 | 1.06
NCI-H520 | 0.691
IA-LM | 1.09
NCI-H661 | 0.983
COR-L 105 | 1.13
NCI-H1703 | 0.319
NCI-H1563 | 0.943
NCI-H1650 | 1.07
NCI-H2009 | 1.17
SK-MES-1 | 0.808
SW 1573 | 0.846

same assay, conditions: first compound 1.581 µM

Cell Line | relative viability
NCI-H1623 | 0.727
PC-14 | 0.832
NCI-H1666 | 0.742
EKVX | 0.221
NCI-H1755 | 0.817
NCI-H2023 | 0.737
HCC-78 | 0.508
SK-LU-1 | 0.722
PC-3 [JPC-3] | 1.01
LOU-NH91 | 0.925
NCI-H647 | 0.855
NCI-H23 | 0.885
EPLC-272H | 0.547
NCI-H2126 | 1.05
ChaGo-K-1 | 0.907
NCI-H1734 | 0.787
NCI-H650 | 1.01
NCI-H2228 | 1.03

Cell Line | relative viability
NCI-H2342 | 1.02
NCI-H1944 | 0.872
Calu-6 | 0.867
COR-L23 | 0.901
EBC-1 | 0.0899
A549 | 0.874
SW 900 | 0.836
NCI-H1299 | 1.03
NCI-H520 | 0.689
IA-LM | 1.15
NCI-H661 | 0.995
COR-L 105 | 0.877
NCI-H1703 | 0.403
NCI-H1563 | 0.898
NCI-H1650 | 0.456
NCI-H2009 | 1.19
SK-MES-1 | 0.757
SW 1573 | 0.69

same assay, conditions: first compound 5 µM

Cell Line | relative viability
NCI-H1623 | 0.925
PC-14 | 0.794
NCI-H1666 | 1.08
EKVX | 0.754
NCI-H1755 | 0.861
NCI-H2023 | 1.11
HCC-78 | 0.675
SK-LU-1 | 0.62
PC-3 [JPC-3] | 1.01
LOU-NH91 | 0.789
NCI-H647 | 1.07
NCI-H23 | 0.942
EPLC-272H | 0.819
NCI-H2126 | 1.14
ChaGo-K-1 | 0.971
NCI-H1734 | 0.849
NCI-H650 | 0.686
LK-2 | 1.31

Cell Line | relative viability
NCI-H2228 | 0.854
NCI-H2342 | 1.11
NCI-H1944 | 1.01
Calu-6 | 0.867
EBC-1 | 0.0897
A549 | 0.907
SW 900 | 1.05
NCI-H1299 | 0.994
NCI-H520 | 0.811
IA-LM | 1.32
NCI-H661 | 0.86
COR-L 105 | 0.834
NCI-H1703 | 0.337
NCI-H1563 | 0.747
NCI-H1650 | 1.18
SK-MES-1 | 0.843
SW 1573 | 0.751

same assay, conditions: first compound 15.81 µM

Cell Line | relative viability
NCI-H1623 | 0.562
PC-14 | 0.926
NCI-H1666 | 0.907
EKVX | 0.315
NCI-H1755 | 0.878
NCI-H2023 | 0.735
HCC-78 | 0.589
SK-LU-1 | 0.598
PC-3 [JPC-3] | 0.959
LOU-NH91 | 0.893
NCI-H647 | 1.2
NCI-H23 | 0.802
EPLC-272H | 0.514
NCI-H2126 | 0.889
ChaGo-K-1 | 0.895
NCI-H1734 | 0.707
NCI-H650 | 0.941
LK-2 | 0.794
NCI-H2228 | 0.817

Cell Line | relative viability
NCI-H2342 | 1.01
NCI-H1944 | 0.747
HARA | 0.805
Calu-6 | 0.839
COR-L23 | 0.897
EBC-1 | 0.0966
A549 | 0.911
SW 900 | 0.591
NCI-H1299 | 1.07
NCI-H520 | 0.613
IA-LM | 1.16
NCI-H661 | 0.969
COR-L 105 | 1.02
NCI-H1703 | 0.325
NCI-H1563 | 0.801
NCI-H1650 | 1.03
NCI-H2009 | 1.2
SK-MES-1 | 0.624
SW 1573 | 0.776

same assay, conditions: first compound 50 µM

Cell Line | relative viability
NCI-H1623 | 0.807
PC-14 | 0.963
NCI-H1666 | 0.749
EKVX | 0.908
NCI-H1755 | 0.837
NCI-H2023 | 0.709
HCC-78 | 0.631
SK-LU-1 | 0.603
PC-3 [JPC-3] | 0.762
LOU-NH91 | 0.918
NCI-H647 | 1.09
NCI-H23 | 0.847
EPLC-272H | 0.26
NCI-H2126 | 0.795
ChaGo-K-1 | 0.72
NCI-H1734 | 0.619
NCI-H650 | 0.712
LK-2 | 0.805
NCI-H2228 | 1.06

Cell Line | relative viability
NCI-H2342 | 1.11
NCI-H1944 | 0.759
HARA | 0.751
Calu-6 | 0.822
COR-L23 | 0.822
EBC-1 | 0.103
A549 | 0.828
SW 900 | 0.431
NCI-H1299 | 1.11
NCI-H520 | 0.626
IA-LM | 0.334
NCI-H661 | 0.805
COR-L 105 | 0.969
NCI-H1703 | 0.304
NCI-H1563 | 0.973
NCI-H1650 | 0.949
NCI-H2009 | 0.986
SK-MES-1 | 0.866
SW 1573 | 0.764

compound: CCOC(=O)CCNc1cc(N2CCc3ccccc3CC2)nc(-c2ccccn2)n1 [GSK-J4] + Cc1cc(Nc2cc(N3CCN(C)CC3)nc(Sc3ccc(NC(=O)C4CC4)cc3)n2)n[nH]1 [Tozasertib] (partner 0.1 µM); assay: as above; conditions: first compound 0.5 µM
Outline: as §1

Cell Line | relative viability
NCI-H522 | 0.541
NCI-H1623 | 0.437
PC-14 | 0.547
NCI-H1666 | 0.606
EKVX | 0.379
NCI-H1755 | 0.585
NCI-H2023 | 0.384
HCC-78 | 0.426
SK-LU-1 | 0.306
PC-3 [JPC-3] | 0.838
LOU-NH91 | 0.654
NCI-H647 | 0.315
NCI-H23 | 0.333
EPLC-272H | 0.385
NCI-H2126 | 0.793
ChaGo-K-1 | 0.221
HCC-44 | 0.809

Cell Line | relative viability
NCI-H1734 | 0.266
NCI-H650 | 0.677
LK-2 | 0.165
NCI-H2228 | 0.221
NCI-H2342 | 0.427
NCI-H1944 | 0.257
HARA | 0.124
COR-L23 | 0.171
SW 900 | 0.478
NCI-H1648 | 0.44
NCI-H520 | 0.439
NCI-H661 | 0.355
COR-L 105 | 0.311
NCI-H1650 | 0.369
NCI-H2009 | 0.69
SK-MES-1 | 0.821
SW 1573 | 0.206

same assay, conditions: first compound 1.581 µM

Cell Line | relative viability
NCI-H522 | 0.608
NCI-H1623 | 0.467
PC-14 | 0.542
NCI-H1666 | 0.499
EKVX | 0.213
NCI-H1755 | 0.582
HCC-78 | 0.401
SK-LU-1 | 0.28
PC-3 [JPC-3] | 0.824
LOU-NH91 | 0.502
NCI-H647 | 0.192
NCI-H23 | 0.397
EPLC-272H | 0.174
NCI-H2126 | 0.676
ChaGo-K-1 | 0.213
HCC-44 | 0.803
NCI-H1734 | 0.251
NCI-H650 | 0.727
NCI-H2228 | 0.237
NCI-H2342 | 0.664
NCI-H1944 | 0.238
COR-L23 | 0.211
SW 900 | 0.463
NCI-H661 | 0.3
COR-L 105 | 0.371
NCI-H1650 | 0.393
NCI-H2009 | 0.663
SK-MES-1 | 0.854
SW 1573 | 0.129

same assay, conditions: first compound 5 µM

Cell Line | relative viability
NCI-H522 | 0.502
NCI-H1623 | 0.455
NCI-H1666 | 0.635
EKVX | 0.406
NCI-H1755 | 0.553
NCI-H2023 | 0.335
HCC-78 | 0.494
SK-LU-1 | 0.289
PC-3 [JPC-3] | 0.883
LOU-NH91 | 0.438
NCI-H647 | 0.178
NCI-H23 | 0.373
EPLC-272H | 0.443
NCI-H2126 | 0.794
ChaGo-K-1 | 0.236
NCI-H1734 | 0.26
NCI-H650 | 0.432
LK-2 | 0.167
NCI-H2228 | 0.246
NCI-H2342 | 0.482
NCI-H1944 | 0.248
SW 900 | 0.696
NCI-H1648 | 0.978
NCI-H520 | 0.497
NCI-H661 | 0.357
COR-L 105 | 0.36
NCI-H1650 | 0.333
NCI-H2009 | 0.681
SK-MES-1 | 0.736
SW 1573 | 0.164

same assay, conditions: first compound 15.81 µM

Cell Line | relative viability
NCI-H522 | 0.515
NCI-H1623 | 0.435
PC-14 | 0.564
NCI-H1666 | 0.534
EKVX | 0.346
NCI-H1755 | 0.531
NCI-H2023 | 0.371
HCC-78 | 0.379
SK-LU-1 | 0.326
PC-3 [JPC-3] | 0.815
LOU-NH91 | 0.619
NCI-H647 | 0.28
NCI-H23 | 0.281
EPLC-272H | 0.146
NCI-H2126 | 0.839
ChaGo-K-1 | 0.236
HCC-44 | 0.646

Cell Line | relative viability
NCI-H1734 | 0.246
NCI-H650 | 0.526
LK-2 | 0.164
NCI-H2228 | 0.247
NCI-H2342 | 0.557
NCI-H1944 | 0.243
HARA | 0.103
COR-L23 | 0.158
SW 900 | 0.408
NCI-H1648 | 0.324
NCI-H520 | 0.39
NCI-H661 | 0.335
COR-L 105 | 0.394
NCI-H1650 | 0.311
NCI-H2009 | 0.717
SK-MES-1 | 0.856
SW 1573 | 0.199

same assay, conditions: first compound 50 µM

Cell Line | relative viability
NCI-H522 | 0.485
